Test results from ChEMBL document CHEMBL5260833, “An overview of quinazolines: Pharmacological significance and recent developments” (Eur J Med Chem, 2018).

Tests used:
CCRF-CEM = test: Anticancer activity against human CCRF-CEM cell assessed as cell growth inhibition measured after 120 hrs; type: functional, cell-based
WIL2 = test: Anticancer activity against human WIL2 cell assessed as cell growth inhibition measured after 120 hrs; type: functional, cell-based; conditions: WIL2, 120 h
UO-31 = test: Anticancer activity against human UO-31 cell assessed as cell growth inhibition measured after 24 hrs by SRB assay; type: functional
RXF 393 = test: Anticancer activity against human RXF 393 cell assessed as cell growth inhibition measured after 24 hrs by SRB assay; type: functional
[1] = Anticancer activity against human CNS cell assessed as cell growth inhibition measured after 24 hrs by SRB assay; type: functional
SR = test: Anticancer activity against human SR cell assessed as cell growth inhibition measured after 24 hrs by SRB assay; type: functional
K562 = test: Anticancer activity against human K562 cell assessed as cell growth inhibition measured after 24 hrs by SRB assay; type: functional
MOLT-4 = test: Anticancer activity against human MOLT-4 cell assessed as cell growth inhibition measured after 24 hrs by SRB assay; type: functional
A549 = test: Anticancer activity against human A549 cell assessed as cell growth inhibition measured after 24 hrs by SRB assay; type: functional
[2] = molecular target: 5-hydroxytryptamine receptor 2A (Homo sapiens, UniProt P28223); test: Inhibition of 5-HT2A (unknown origin) assessed as inhibition constant
5-hydroxytryptamine receptor 2A, sequence (P28223 whole entry): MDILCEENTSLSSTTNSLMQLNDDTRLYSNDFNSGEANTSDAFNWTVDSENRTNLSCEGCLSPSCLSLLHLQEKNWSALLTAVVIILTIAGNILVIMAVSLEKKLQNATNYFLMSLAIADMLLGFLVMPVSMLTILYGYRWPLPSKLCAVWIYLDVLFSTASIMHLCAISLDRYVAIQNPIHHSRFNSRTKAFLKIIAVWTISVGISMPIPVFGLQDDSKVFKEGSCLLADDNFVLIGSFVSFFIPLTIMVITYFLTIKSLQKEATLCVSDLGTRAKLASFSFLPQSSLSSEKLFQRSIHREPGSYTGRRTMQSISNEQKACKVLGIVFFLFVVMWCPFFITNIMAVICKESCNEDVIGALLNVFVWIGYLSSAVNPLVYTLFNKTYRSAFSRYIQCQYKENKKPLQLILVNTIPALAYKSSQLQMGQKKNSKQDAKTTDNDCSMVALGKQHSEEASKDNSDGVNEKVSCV

[3] = system: Human immunodeficiency virus 1; test: Antiviral activity against HIV-1 infected in human MT4 cells assessed as protection against virus-induced cytotoxicity relative to control; type: functional; design: concentration or dose not given beside the values
[4] = system: Human immunodeficiency virus 2; test: Antiviral activity against HIV-2 infected in human MT4 cells assessed as protection against virus-induced cytotoxicity relative to control; type: functional; design: concentration or dose not given beside the values
Mus musculus [5] = test: Anticonvulsant activity in ip dosed mouse assessed as reduction in tonus phase; type: functional
Mus musculus [6] = test: Anticonvulsant activity in ip dosed mouse assessed as reduction in clonus phase; type: functional
Canis familiaris = test: Antiplatelet activity in iv dosed dog assessed as platelet aggregation; type: functional, organism-based; conditions: Canis lupus familiaris
Mus musculus [7] = test: Analgesic activity in phenylbenzoquinone induced mouse assessed as reduction in writhing at 10 mg/kg, po measured after 1 hrs by writhing test relative to control; type: functional
Mus musculus [8] = test: Analgesic activity in acetic acid peritonitis induced mouse assessed as reduction in writhing at 10 mg/kg, po measured after 1 hrs by writhing test relative to control; type: functional
[9] = Inhibition of HCV RNA IRES IIa by FRET assay; design: species or system Hepacivirus hominis
HeLa = test: Anticancer activity against human HeLa cells assessed as cell growth inhibition incubated for 24 hrs by MTT assay; type: functional, cell-based
MDA-MB-231 = test: Anticancer activity against human MDA-MB-231 cells assessed as cell growth inhibition incubated for 24 hrs by MTT assay; type: functional, cell-based; conditions: MDA-MB-231, 24 h
Rattus norvegicus [10] = test: Antiinflammatory activity in carrageenan induced rat at assessed as reduction in paw edema 50 mg/kg, ip measured after […] relative to control; type: functional; design: scale not given: the % may be the effect or the level left
Oryctolagus cuniculus [11] = species: Oryctolagus cuniculus; test: Antihypertensive activity in rabbit aorta assessed as vasodilation; type: functional
Mus musculus [12] = test: Anticonvulsant activity in mouse at 100 mg/kg, ip by MES test relative to control; type: functional
Mus musculus [13] = test: Anticonvulsant activity in PTZ induced mouse at 100 mg/kg, ip relative to control; type: functional
Mus musculus [14] = test: Sedative activity in mouse assessed as sleeping time at 300 mg/kg, ip; type: functional
Mus musculus [15] = test: Analgesic activity in […] albino mouse at 20 mg/kg, po measured after 2 hrs by Tail-Flick technique relative to control; type: functional
Mus musculus [16] = test: Analgesic activity in mouse at 100 mg/kg, ip measured after 30 mins relative to control; type: functional; conditions: 0.5 h
[17] = molecular target: Prostaglandin G/H synthase 2 (Homo sapiens) (UniProt P35354); test: Inhibition of COXII (unknown origin) relative to control; conditions: concentration not given here
Prostaglandin G/H synthase 2 (Homo sapiens), sequence (P35354 whole entry): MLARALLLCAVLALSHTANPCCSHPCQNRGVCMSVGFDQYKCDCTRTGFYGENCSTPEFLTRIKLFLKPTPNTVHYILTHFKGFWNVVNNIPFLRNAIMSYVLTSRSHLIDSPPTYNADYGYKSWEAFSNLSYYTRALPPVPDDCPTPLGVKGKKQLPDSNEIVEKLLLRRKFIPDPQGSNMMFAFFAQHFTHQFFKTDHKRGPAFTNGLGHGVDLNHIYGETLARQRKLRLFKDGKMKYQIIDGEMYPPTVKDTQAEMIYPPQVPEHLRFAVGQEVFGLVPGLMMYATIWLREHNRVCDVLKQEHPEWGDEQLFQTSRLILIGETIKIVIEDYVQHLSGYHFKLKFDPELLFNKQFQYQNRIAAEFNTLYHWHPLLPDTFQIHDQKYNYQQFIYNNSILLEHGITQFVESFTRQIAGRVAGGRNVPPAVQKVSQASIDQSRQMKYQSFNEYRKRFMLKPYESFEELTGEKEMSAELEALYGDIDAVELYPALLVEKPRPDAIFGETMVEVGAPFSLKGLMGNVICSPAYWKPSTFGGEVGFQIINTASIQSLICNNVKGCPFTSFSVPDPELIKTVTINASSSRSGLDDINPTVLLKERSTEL

Oryctolagus cuniculus [18] = test: Antihypertensive activity in po dosed rabbit assessed as decrease in 30mmhg of systolic blood pressure measured after 4 to 6 hrs; type: functional; conditions: time 4-6 hrs
[19] = system: Human immunodeficiency virus 1; test: Antiviral activity against HIV1; type: functional, organism-based
[20] = system: Human immunodeficiency virus 1; test: Therapeutic index, ratio of IC50 for antiviral activity against HIV1 to EC50 for antiviral activity against HIV1; type: functional
Rattus norvegicus [21] = test: Antiinflammatory activity in rat at assessed as reduction in paw edema relative to control; type: functional
[22] = molecular target: Histamine H2 receptor (Homo sapiens) (UniProt P25021); test: Inhibition of histamine h2 (unknown origin)
Histamine H2 receptor (Homo sapiens), sequence (P25021 whole entry): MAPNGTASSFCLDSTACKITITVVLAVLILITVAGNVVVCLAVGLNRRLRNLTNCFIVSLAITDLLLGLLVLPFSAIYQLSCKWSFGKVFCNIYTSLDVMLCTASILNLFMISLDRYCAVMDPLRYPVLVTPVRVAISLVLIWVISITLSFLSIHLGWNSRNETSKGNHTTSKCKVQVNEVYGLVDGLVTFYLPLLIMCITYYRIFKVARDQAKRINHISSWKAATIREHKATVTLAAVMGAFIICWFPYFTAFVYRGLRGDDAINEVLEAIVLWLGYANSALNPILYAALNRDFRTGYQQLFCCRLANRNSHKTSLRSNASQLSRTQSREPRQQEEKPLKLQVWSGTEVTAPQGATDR

Mus musculus [23] = test: Sedative activity in mouse assessed as sleeping time at 100 mg/kg, ip; type: functional
Mus musculus [24] = test: Sedative activity in mouse assessed as sleeping time at 30 mg/kg, ip; type: functional

## COC(=O)CCC(NC(=O)c1ccc(NCc2ccc3nc(C)[nH]c(=O)c3c2Cl)s1)C(=O)OC (configuration not stated)
CCRF-CEM
  IC50: 2100 nM
WIL2
  IC50: 1800 nM

## Nc1nc2[nH]cnc2c(=S)[nH]1 [THIOGUANINE]
UO-31
  GI50: 1480 nM
RXF 393
  GI50: 759 nM
[1]
  GI50: 4900 nM
SR
  GI50: 1620 nM
K562
  GI50: 195 nM
MOLT-4
  GI50: 9120 nM
A549
  GI50: 3550 nM

## Cc1nc2c(c(=O)n1CCN1CCC(C(=O)c3ccc(F)cc3)CC1)CCCC2
[2]
  Ki: 2.63 nM

## Cc1nc2ccccc2c(=O)n1NCN(C)C
[3]
  Activity: 21%
[4]
  Activity: 25%

## Nc1ccc(-c2nc(O)c3cc4c(cc3n2)OCO4)cc1
Mus musculus [5]
  ED50: 21.6 µmol/kg
Mus musculus [6]
  ED50: 36.5 µmol/kg

## CCCCS(=O)(=O)NC(CC#Cc1ccc2[nH]c(=O)n(CCC3CCNCC3)c(=O)c2c1)C(=O)O (configuration not stated)
Canis familiaris
  IC50: 210 nM

## Oc1nc(-c2ccc(Cl)cc2)nc2cc3c(cc12)OCO3
Mus musculus [6]
  ED50: 32.7 µmol/kg

## CC(=O)Oc1ccccc1C(=O)O [ASPIRIN]
Mus musculus [7]
  inhibition in vivo at 10 mg/kg: 20%
Mus musculus [8]
  inhibition in vivo at 10 mg/kg: 60%

## CC1(C)NC(N)=Nc2ccccc21
[9]
  EC50: 420000 nM

## CCCCS(=O)(=O)NC(CNC(=O)c1ccc2[nH]c(=O)n(CCC3CCNCC3)c(=O)c2c1)C(=O)O (configuration not stated)
Canis familiaris
  IC50: 210 nM

## COc1cccc2c(=O)n(Cc3ccccc3)c(SCCN3CCOCC3)nc12
HeLa
  IC50: 1850 nM
MDA-MB-231
  IC50: 1850 nM

## NC1=NCc2ccccc2C(=O)N1
[9]
  EC50: 650000 nM

## O=c1c2ccccc2nc(-c2ccccc2)n1-c1nc2ccccc2s1
Rattus norvegicus [10]
  Activity: 30.3%

## O=c1[nH]cc(F)c(=O)[nH]1 [FLUOROURACIL]
UO-31
  GI50: 6760 nM
RXF 393
  GI50: 55000 nM
[1]
  GI50: 42700 nM
SR
  GI50: 1620 nM
K562
  GI50: 407 nM
MOLT-4
  GI50: 17000 nM
A549
  GI50: 1050 nM

## CC(=O)OC1C([N+](=O)[O-])c2ccc(Cl)cc2C(=O)N1[N+](=O)[O-] (configuration not stated)
Oryctolagus cuniculus [11]
  pD2: 5.4

## O=C(c1ccc(F)cc1)C1CCN(CCn2cnc3c(c2=O)CCCC3)CC1
[2]
  Ki: 7.59 nM

## CCn1c(SCC(=O)NN2C(=O)C(C)S/C2=N\c2ccccc2)nc2ccccc2c1=O (configuration not stated)
Mus musculus [12]
  Activity: 66%
Mus musculus [13]
  Activity: 66%

## O=c1c2ccccc2nc(-c2cccnc2)n1-c1ccccc1F
Mus musculus [14]
  Time: 395.5 min

## COc1ccccc1C1SCC(=O)N1NCC(=O)Cc1nc2ccccc2c(=O)n1-c1c(C)[nH]c2ccccc12 (configuration not stated)
Mus musculus [15]
  Activity: 80%
Mus musculus [16]
  Activity: 80%
[17]
  inhibition: 90%

## O=c1c2ccccc2nc(-c2ccncc2)n1CCCN1CCOCC1
Mus musculus [14]
  Time: 7.1 min

## Oc1nc(-c2ccc(Br)cc2)nc2cc3c(cc12)OCO3
Mus musculus [5]
  ED50: 27.8 µmol/kg
Mus musculus [6]
  ED50: 32.7 µmol/kg

## Clc1cccc(Cl)c1NC1=NCCN1 [CLONIDINE]
Oryctolagus cuniculus [18]
  ED30: 0.065 mg/kg

## Cc1ccc2c(c1)/C(=N\NC(=O)CSc1nc3ccccc3c(=O)n1-c1ccccc1)C(=O)N2
[19]
  EC50: 68100 nM
  IC50: > 100000 nM
[20]
  Ratio IC50/EC50: >1.47
UO-31
  GI50: 209 nM
RXF 393
  GI50: 1660 nM
[1]
  GI50: 209 nM

## CCOC(=O)c1c(C)cc2nc(COC(=O)NC(C)C)n(-c3ccccc3Cl)c(=O)c2c1C
Oryctolagus cuniculus [18]
  ED30: 0.42 mg/kg

## O=c1c2ccccc2nc(S)n1NCn1cnc2ccccc21
[3]
  Activity: 25%
[4]
  Activity: 27%

## CCCCS(=O)(=O)NC(CCCc1ccc2c(c1)c(=O)n(CCC1CCNCC1)c(=O)n2Cc1ccccc1)C(=O)O (configuration not stated)
Canis familiaris
  IC50: 210 nM

## CCCCC1C(=O)N(c2ccccc2)N(c2ccccc2)C1=O [PHENYLBUTAZONE]
Mus musculus [7]
  inhibition in vivo at 10 mg/kg: 25%
Mus musculus [8]
  inhibition in vivo at 10 mg/kg: 11%
Rattus norvegicus [21]
  inhibition (INH): 38.9%

## CC(=O)OC1C([N+](=O)[O-])c2ccccc2C(=O)N1[N+](=O)[O-] (configuration not stated)
Oryctolagus cuniculus [11]
  pD2: 5.36

## CNC(=C[N+](=O)[O-])NCCSCc1ccc(CN(C)C)o1
[22]
  ED50: 12.3 mg/kg
  pKb: 7.06

## O=c1c2ccccc2nc(-c2ccncc2)n1-c1ccccc1F
Mus musculus [14]
  Time: 699.7 min
Mus musculus [23]
  Time: 111.2 min
Mus musculus [24]
  Time: 3.5 min
